Experimental findings from patent publication US20110136792A1, “NOVEL CARBOXYLIC ACID ANALOGS AS GLYCOGEN SYNTHASE ACTIVATORS” (priority 2009, published 2011) are described below.

Molecules are shown by their SMILES.

This test deals with glycogen synthase. Kind of test: Glycogen Synthase (GS) Assay. Particulars: coupled pyruvate kinase/lactate dehydrogenase assay, absorbance at 340 nm; for EC50: compound concentration needed to give 50% maximum activation; for GS SC200: compound concentration needed to stimulate 200% of the enzyme activity. The class given is biochemical. As for the experimental part: The following tests were carried out in order to determine the activity of the compounds of formula (I).
Twelve μL per well of substrate solution containing glycogen (4.32 mg/ml), 2.67 mM UDP-glucose, 21.6 mM phospho(enol)pyruvate and 2.7 mM NADH in 30 mM glycylglycine, pH 7.3 buffer was added into a polystyrene 384-well assay plate (BD Biosciences).
Compound solutions (8 μL/well) at various concentrations (0-300 μM) were added to the assay plate (columns 5-24). Compound solution contains 30 mM glycylglycine, pH 7.3, 40 mM KCl, 20 mM MgCl2, 9.2% DMSO, with (columns 15-24) or without (columns 5-14) 20 mM glucose 6-phosphate.
Enzyme solution (12 μL/well) containing glycogen synthase (16.88 μg/ml), pyruvate kinase (0.27 mg/ml), lactate dehydrogenase (0.27 mg/ml) in 50 mM Tris-HCl, pH 8.0, 27 mM DTT and bovine serum albumin (BSA, 0.2 mg/ml) was added to the assay plate (columns 3-24). As a blank control, enzyme solution without glycogen synthase was added into the top half wells of columns 1-2. To the bottom half wells of columns 1-2 were added a known activator, glucose 6-phosphate (at final concentration 5 mM) in addition to the enzyme solution. The reaction mixture was incubated at room temperature. The assay plate was then read for absorbance at 340 nm on an Envision reader every 3 minutes up to a total of 15 minutes.
The enzyme activity (with or without compound) was calculated by the reaction rate and represented by the optical density change (δOD) per minute. Percent stimulation of glycogen synthase activity by a compound at various concentrations was calculated by the following formula: […]
Where Rs is the reaction rate of the enzyme in the presence of compound and Rt is the reaction rate of the enzyme in the absence of compound.
SC200 is defined as the compound concentration that is needed to stimulate 200% of the enzyme activity. EC50 is defined as the compound concentration that is needed to give 50% maximum activation.
Compounds from Examples 1 through Example 64 were assayed according to assay procedures described above and the result is listed in Table 1 below: […]

As to `O=C(O)C1CCS(=O)(=O)N1Cc1cccc(COc2ccc(-c3cc(F)c(F)cc3F)cc2)c1` (racemic) [Example 38, 1,1-Dioxo-2-[3-(2′,4′,5′-trifluoro-biphenyl-4-yloxymethyl)-benzyl]-1lambda*6*-isothiazolidine-3-carboxylic acid], it took 130 nM to reach a half-maximal effect (EC50) and the “GS SC200” value amounted to 0.05 µM.

For the compound `Cc1cc(F)c(F)cc1-c1ccc(OCc2cccc(CN3C(C(=O)O)CCS3(=O)=O)c2)cc1` (racemic) [Example 39, 2-[3-(4′,5′-Difluoro-2′-methyl-biphenyl-4-yloxymethyl)-benzyl]-1,1-dioxo-1lambda*6*-isothiazolidine-3-carboxylic acid], the concentration for a half-maximal effect (EC50) (as a rule, the concentration at which the effect is half-maximal) was 180 nM and the “GS SC200” value was determined as 0.03 µM.

`O=C(O)C1CCS(=O)(=O)N1Cc1cccc(COc2ccc(-c3cc(F)c(F)cc3Cl)cc2)c1` (racemic) [Example 40, 2-[3-(2′-Chloro-4′,5′-difluoro-biphenyl-4-yloxymethyl)-benzyl]-1,1-dioxo-1lambda*6*-isothiazolidine-3-carboxylic acid]: the EC50 is 200 nM and the “GS SC200” value was 0.04 µM.

As for `COc1cc(F)c(F)cc1-c1ccc(OCc2cccc(CN3C(C(=O)O)CCS3(=O)=O)c2)cc1` (racemic) [Example 43, 2-[3-(4′,5′-Difluoro-2′-methoxy-biphenyl-4-yloxymethyl)-benzyl]-1,1-dioxo-1lambda*6*-isothiazolidine-3-carboxylic acid], the EC50 turned out to be 190 nM and the “GS SC200” value was found to be 0.03 µM.

For the compound `COc1cc(F)c(F)cc1-c1ccc(OCc2cccc(CN(CC(=O)O)C(=O)C(C)(C)C)c2)cc1` [Example 1, [[3-(4′,5′-Difluoro-2′-methoxy-biphenyl-4-yloxymethyl)-benzyl]-(2,2-dimethyl-propionyl)-amino]-acetic acid], it took 1340 nM to reach a half-maximal effect (EC50) and the “GS SC200” value worked out at 0.21 µM.

Consider `COc1cc(F)c(F)cc1-c1ccc(OCc2cccc(CN(CC(=O)O)C(=O)CC(C)C)c2)cc1` [Example 2, [[3-(4′,5′-Difluoro-2′-methoxy-biphenyl-4-yloxymethyl)-benzyl]-(3-methyl-butyryl)-amino]-acetic acid], for which the EC50 was 1080 nM and the “GS SC200” value turned out to be 0.13 µM.

Regarding `COc1cc(F)c(F)cc1-c1ccc(OCc2cccc(CN(CC(=O)O)C(=O)N3CCOCC3)c2)cc1` [Example 3, [[3-(4′,5′-Difluoro-2′-methoxy-biphenyl-4-yloxymethyl)-benzyl]-(morpholine-4-carbonyl)-amino]-acetic acid], the EC50 amounted to 690 nM and the “GS SC200” value was 0.11 µM.

Consider `COc1cc(F)c(F)cc1-c1ccc(OCc2cccc(CN(CC(=O)O)C(=O)C3CCC3)c2)cc1` [Example 4, {Cyclobutanecarbonyl-[3-(4′,5′-difluoro-2′-methoxy-biphenyl-4-yloxymethyl)-benzyl]-amino}-acetic acid], for which the 50% effective concentration (EC50) came out at 720 nM and the “GS SC200” value amounted to 0.18 µM.

On to `COc1cc(F)c(F)cc1-c1ccc(OCc2cccc(CN(CC(=O)O)C(=O)c3ccccc3)c2)cc1` [Example 5, {Benzoyl-[3-(4′,5′-difluoro-2′-methoxy-biphenyl-4-yloxymethyl)-benzyl]-amino}-acetic acid], for which the EC50 stood at 450 nM and the “GS SC200” value worked out at 0.09 µM.

Turning to `COc1cc(F)c(F)cc1-c1ccc(OCc2cccc(CN(CC(=O)O)C(=O)OC(C)C)c2)cc1` [Example 6, {[3-(4′,5′-Difluoro-2′-methoxy-biphenyl-4-yloxymethyl)-benzyl]-isopropoxycarbonyl-amino}-acetic acid], the response was half-maximal at 470 nM (EC50) and the “GS SC200” value came to 0.03 µM.

Take `CCS(=O)(=O)N(CC(=O)O)Cc1cccc(COc2ccc(-c3cc(F)c(F)cc3OC)cc2)c1` [Example 7, {[3-(4′,5′-Difluoro-2′-methoxy-biphenyl-4-yloxymethyl)-benzyl]-ethanesulfonyl-amino}-acetic acid]: the EC50 came out at 310 nM and the “GS SC200” value was determined as 0.04 µM.
